Test results as given in PubChem BioAssay AID1845201 (Molecular Pharmacology Branch, DTP, NCI, 2023).
Values joined by “and” are separate entries in the source; they are usually repeats but may differ in a detail not shown here. Identical values can stand only once.

System: COR L88 complex tumor spheroid viability
Experiment: Anticancer human tumor COR L88 cell line growth inhibition;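 note: compound exposure lasted 7 days before viability readout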;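 for viability, T/C: percent of DMSO vehicle-treated spheroids = 100%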
Conditions: for viability, T/C: stronger effect = lower value
Method in brief: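 Complex tumor spheroids combined malignant cells with endothelial cells and mesenchymal stem cells. DNA-damaging drugs and DNA repair inhibitors were tested alone and in combination, at half-log dilutions down from clinical Cmax (top 10 microM if Cmax unknown), 0.25% DMSO final.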

[1] = curve of first compound, second compound 0.003 µM
[2] = second compound 0.003 µM, first compound 0.0316 µM
[3] = second compound 0.003 µM, first compound 0.1 µM
[4] = second compound 0.003 µM, first compound 0.316 µM
[5] = second compound 0.003 µM, first compound 1 µM
[6] = second compound 0.003 µM, first compound 3.16 µM
[7] = second compound 0.003 µM, first compound 10 µM
[8] = curve of first compound, second compound 30 pM
[9] = curve of first compound, second compound 94.9 pM
[10] = curve of first compound, second compound 0.0003 µM
[11] = curve of first compound, second compound 0.000949 µM

For `COc1ccc([C@@H](O)c2cc(-c3ncnc4cc(N5CCOCC5)ccc34)c(F)cc2Cl)nn1` + CC[C@@]1(O)C(=O)OCc2c1cc1n(c2=O)Cc2cc3c(CN(C)C)c(O)ccc3nc2-1, the IC50 [1] was 3180 nM, the IC50 (curve of first compound, second compound 0.00949 µM) was 4000 nM and the IC50 (curve of first compound, second compound 0.03 µM) was 98.3 nM. It also gave an IC50 (curve of first compound, second compound 0.0949 µM) of 122 nM, an IC50 (curve of first compound, second compound 0.3 µM) of 132 nM and a viability, T/C [2] of 96.3%. The viability, T/C [3] was 101%, the viability, T/C [4] was 94.2% and the viability, T/C [5] was 71.8%. For the same molecule, the viability, T/C [6] was 52.3%, the viability, T/C [7] was 34.6% and the viability, T/C (second compound 0.00949 µM, first compound 0.0316 µM) was 68.3%. For the same molecule, the viability, T/C (second compound 0.00949 µM, first compound 0.1 µM) was 68.7%, the viability, T/C (second compound 0.00949 µM, first compound 0.316 µM) was 67.9% and the viability, T/C (second compound 0.00949 µM, first compound 1 µM) was 57.6%. For the same molecule, the viability, T/C (second compound 0.00949 µM, first compound 3.16 µM) was 52.9%, the viability, T/C (second compound 0.00949 µM, first compound 10 µM) was 40.6% and the viability, T/C (second compound 0.03 µM, first compound 0.0316 µM) was 53.1%. The viability, T/C (second compound 0.03 µM, first compound 0.1 µM) was 53.6%, the viability, T/C (second compound 0.03 µM, first compound 0.316 µM) was 46.6% and the viability, T/C (second compound 0.03 µM, first compound 1 µM) was 40.1%. The viability, T/C (second compound 0.03 µM, first compound 3.16 µM) was 32%, the viability, T/C (second compound 0.03 µM, first compound 10 µM) was 38.5% and the viability, T/C (second compound 0.0949 µM, first compound 0.0316 µM) was 55.3%. It also gave a viability, T/C (second compound 0.0949 µM, first compound 0.1 µM) of 53.2%, a viability, T/C (second compound 0.0949 µM, first compound 0.316 µM) of 45.2% and a viability, T/C (second compound 0.0949 µM, first compound 1 µM) of 40.5%. The viability, T/C (second compound 0.0949 µM, first compound 3.16 µM) was 31.8%, the viability, T/C (second compound 0.0949 µM, first compound 10 µM) was 31.7% and the viability, T/C (second compound 0.3 µM, first compound 0.0316 µM) was 54.2%. For the same molecule, the viability, T/C (second compound 0.3 µM, first compound 0.1 µM) was 51%, the viability, T/C (second compound 0.3 µM, first compound 0.316 µM) was 43.9% and the viability, T/C (second compound 0.3 µM, first compound 1 µM) was 37.6%. The viability, T/C (second compound 0.3 µM, first compound 3.16 µM) was 18.6% and the viability, T/C (second compound 0.3 µM, first compound 10 µM) was 8.14%.

In the case of `CNCc1ccc(-c2cc(-c3nc(-c4ccc(S(=O)(=O)C(C)C)cc4)cnc3N)on2)cc1`, the viability, T/C (compound 0.00949 µM) is reported as 98.5% and 103% and 105%, the viability, T/C (compound 0.03 µM) is reported as 111% and 118% and 104% and the viability, T/C (compound 0.0949 µM) is reported as 109% and 107% and 101%. For the same molecule, the viability, T/C (compound 0.3 µM) was 87% and 84.6% and 56.4%, the viability, T/C (compound 0.949 µM) was 40.9% and 47.2% and 22.6% and the viability, T/C (compound 3 µM) was 11.8% and 11.3% and 5.68%. The IC50 (curve of compound) was 753 nM and 848 nM and 391 nM.

For `Cn1ncnc1[C@H]1c2n[nH]c(=O)c3cc(F)cc(c23)N[C@@H]1c1ccc(F)cc1` + COc1cc2c(cc1O)CCNC21CSC2c3c(OC(C)=O)c(C)c4c(c3C(COC1=O)N1C(O)C3Cc5cc(C)c(OC)c(O)c5C(C21)N3C)OCO4, the IC50 [8] was 255 nM, the IC50 [9] was 120 nM and the IC50 [10] was 40.1 nM. The IC50 [11] was less than 9.49 nM, the IC50 [1] was less than 9.49 nM and the viability, T/C (second compound 30 pM, first compound 0.00949 µM) was 90.9%. The viability, T/C (second compound 30 pM, first compound 0.03 µM) was 72.8%, the viability, T/C (second compound 30 pM, first compound 0.0949 µM) was 58.9% and the viability, T/C (second compound 30 pM, first compound 0.3 µM) was 47.3%. It also gave a viability, T/C (second compound 30 pM, first compound 0.949 µM) of 43.9%, a viability, T/C (second compound 30 pM, first compound 3 µM) of 37.3% and a viability, T/C (second compound 94.9 pM, first compound 0.00949 µM) of 77.1%. The viability, T/C (second compound 94.9 pM, first compound 0.03 µM) was 61.3%, the viability, T/C (second compound 94.9 pM, first compound 0.0949 µM) was 50.5% and the viability, T/C (second compound 94.9 pM, first compound 0.3 µM) was 45.8%. It also gave a viability, T/C (second compound 94.9 pM, first compound 0.949 µM) of 42.5%, a viability, T/C (second compound 94.9 pM, first compound 3 µM) of 38.5% and a viability, T/C (second compound 0.0003 µM, first compound 0.00949 µM) of 57.9%. For the same molecule, the viability, T/C (second compound 0.0003 µM, first compound 0.03 µM) was 51.9%, the viability, T/C (second compound 0.0003 µM, first compound 0.0949 µM) was 46.1% and the viability, T/C (second compound 0.0003 µM, first compound 0.3 µM) was 43.6%. It also gave a viability, T/C (second compound 0.0003 µM, first compound 0.949 µM) of 39.4%, a viability, T/C (second compound 0.0003 µM, first compound 3 µM) of 41% and a viability, T/C (second compound 0.000949 µM, first compound 0.00949 µM) of 53.6%. The viability, T/C (second compound 0.000949 µM, first compound 0.03 µM) was 45%, the viability, T/C (second compound 0.000949 µM, first compound 0.0949 µM) was 44.2% and the viability, T/C (second compound 0.000949 µM, first compound 0.3 µM) was 36.2%. It also gave a viability, T/C (second compound 0.000949 µM, first compound 0.949 µM) of 13.9%, a viability, T/C (second compound 0.000949 µM, first compound 3 µM) of 2.75% and a viability, T/C (second compound 0.003 µM, first compound 0.00949 µM) of 1.06%. It also gave a viability, T/C (second compound 0.003 µM, first compound 0.03 µM) of 0.96%, a viability, T/C (second compound 0.003 µM, first compound 0.0949 µM) of 0.96% and a viability, T/C (second compound 0.003 µM, first compound 0.3 µM) of 0.79%. It also gave a viability, T/C (second compound 0.003 µM, first compound 0.949 µM) of 1.64% and a viability, T/C (second compound 0.003 µM, first compound 3 µM) of 2.68%.

`CC(C)n1c(=O)n(C)c2cnc3cc(F)c(-c4ccc(OCCCN5CCCCC5)nc4)cc3c21` + COc1cc2c(cc1O)CCNC21CSC2c3c(OC(C)=O)c(C)c4c(c3C(COC1=O)N1C(O)C3Cc5cc(C)c(OC)c(O)c5C(C21)N3C)OCO4 showed an IC50 [8] greater than 10000 nM, an IC50 [9] of 9080 nM and an IC50 [10] of 4840 nM. The IC50 [11] was 1990 nM, the IC50 [1] was less than 31.6 nM and the viability, T/C (second compound 30 pM, first compound 0.0316 µM) was 104%. It also gave a viability, T/C (second compound 30 pM, first compound 0.1 µM) of 107%, a viability, T/C (second compound 30 pM, first compound 0.316 µM) of 95.9% and a viability, T/C (second compound 30 pM, first compound 1 µM) of 104%. It also gave a viability, T/C (second compound 30 pM, first compound 3.16 µM) of 94.1%, a viability, T/C (second compound 30 pM, first compound 10 µM) of 51.2% and a viability, T/C (second compound 94.9 pM, first compound 0.0316 µM) of 104%. It also gave a viability, T/C (second compound 94.9 pM, first compound 0.1 µM) of 103%, a viability, T/C (second compound 94.9 pM, first compound 0.316 µM) of 98% and a viability, T/C (second compound 94.9 pM, first compound 1 µM) of 103%. The viability, T/C (second compound 94.9 pM, first compound 3.16 µM) was 89.3%, the viability, T/C (second compound 94.9 pM, first compound 10 µM) was 46.1% and the viability, T/C (second compound 0.0003 µM, first compound 0.0316 µM) was 64.2%. It also gave a viability, T/C (second compound 0.0003 µM, first compound 0.1 µM) of 67.4%, a viability, T/C (second compound 0.0003 µM, first compound 0.316 µM) of 65.2% and a viability, T/C (second compound 0.0003 µM, first compound 1 µM) of 68.3%. It also gave a viability, T/C (second compound 0.0003 µM, first compound 3.16 µM) of 61.2%, a viability, T/C (second compound 0.0003 µM, first compound 10 µM) of 30.1% and a viability, T/C (second compound 0.000949 µM, first compound 0.0316 µM) of 57.3%. It also gave a viability, T/C (second compound 0.000949 µM, first compound 0.1 µM) of 54.5%, a viability, T/C (second compound 0.000949 µM, first compound 0.316 µM) of 54.7% and a viability, T/C (second compound 0.000949 µM, first compound 1 µM) of 53.9%. For the same molecule, the viability, T/C (second compound 0.000949 µM, first compound 3.16 µM) was 47.3%, the viability, T/C (second compound 0.000949 µM, first compound 10 µM) was 11.1% and the viability, T/C [2] was 0.74%. For the same molecule, the viability, T/C [3] was 0.77%, the viability, T/C [4] was 0.6% and the viability, T/C [5] was 0.82%. It also gave a viability, T/C [6] of 0.66% and a viability, T/C [7] of 0.99%.
